Values after ≈ are worked out from the molar mass of the structure shown. Active and inactive are the calls of the source. The calls are words filed in the database; no cut-off is given here.
Experiments:
[1] = test system: Staphylococcus aureus; experiment: Bactericidal activity against methicillin-resistant Staphylococcus aureus NCTC 10442 assessed as bacterial reduction at 8 time of MIC concentration incubated for 0.5 hrs by time-kill assay; assay type: functional
[2] = test system: Staphylococcus aureus; experiment: Antibacterial activity against methicillin-resistant Staphylococcus aureus NCTC 10442 assessed as inhibition of bacterial growth incubated for 24 hrs in presence of 1 mM Mg2+ by broth dilution method; assay type: functional
[3] = test system: Pseudomonas aeruginosa; experiment: Antibacterial activity against Pseudomonas aeruginosa ATCC 9027 assessed as inhibition of bacterial growth incubated for 24 hrs by broth dilution method; assay type: functional
[4] = test system: Lipopolysaccharide (LPS); experiment: Displacement of BODIPY-TR-cadaverine from Escherichia coli lipopolysaccharide (LPS) assessed as increase in fluorescence intensity at 2 times MIC measured after 30 mins by fluorescence spectrophotometric analysis; assay type: subcellular
[5] = test system: Escherichia coli; experiment: Bactericidal activity against Escherichia coli ATCC 25922 assessed as down-regulation down of ferroxidase activity (GO:0004322) at 4 times of MIC concentration measured after 90 mins incubation by RNA sequencing (RNA-seq) study; assay type: functional, organism-based
[6] = test system: Staphylococcus aureus; experiment: Antibacterial activity against methicillin-resistant Staphylococcus aureus NCTC 10442 assessed as inhibition of bacterial growth incubated for 24 hrs in presence of 140 mM Na+ by broth dilution method; assay type: functional
[7] = test system: Escherichia coli; experiment: Antibacterial activity against Escherichia coli ATCC 25922 assessed as inhibition of bacterial growth incubated for 24 hrs in presence of 2.5 mM Ca2+ by broth dilution method; assay type: functional
[8] = test system: Staphylococcus aureus; experiment: Antibacterial activity against Staphylococcus aureus ATCC 29213 assessed as inhibition of bacterial growth incubated for 24 hrs by broth dilution method; assay type: functional
[9] = Cytotoxicity against human HepG2 cells assessed as viable cells at […] microg/ml incubated for 24 hrs by CCK-8 assay; assay type: toxicity, cell-based; settings: dose 1.56 µg/ml, read-out: Activity
[10] = Cytotoxicity against human HepG2 cells assessed as viable cells at 3.125 microg/ml incubated for 24 hrs by CCK-8 assay; assay type: toxicity, cell-based; settings: at 3.125 µg/mL, read-out: Activity
[11] = test system: Escherichia coli; experiment: (§1) Bactericidal activity against Escherichia coli ATCC 25922 assessed as change in cell death associated gene expression by measuring down-regulation of UDP-glucose 4-epimerase (galE, D1792_RS06370) gene expression at 4 times of MIC concentration measured after 90 mins incubation by RNA sequencing (RNA-seq) study; assay type: functional, organism-based
[12] = test system: Staphylococcus aureus; experiment: Antibacterial activity against methicillin-resistant Staphylococcus aureus NCTC 10442 assessed as inhibition of bacterial growth incubated for 24 hrs in presence of 4.5 mM K+ by broth dilution method; assay type: functional
[13] = test system: Escherichia coli; experiment: Bactericidal activity against Escherichia coli ATCC 25922 assessed as change in amino acid metabolism gene expression at 4 times of MIC concentration measured after 90 mins incubation by RNA sequencing (RNA-seq) study; assay type: functional, organism-based
[14] = test system: Staphylococcus aureus; experiment: Bactericidal activity against methicillin-resistant Staphylococcus aureus NCTC 10442 assessed as up-regulation of molecular functions related gene expression by measuring uracil DNA N-glycosylase activity (GO:0004844) at 4 times of MIC concentration measured after 90 mins incubation by RNA sequencing (RNA-seq) study; assay type: functional, organism-based
[15] = test system: Cell membrane; experiment: Induction of cytoplasmic membrane permeabilization in Escherichia coli ATCC 25922 assessed as disruption of cell membrane integrity measured upto 60 mins by measuring increase in fluorescence intensity at 1 to 8 times of MIC concentration by SYTOX green dye based fluorescence analysis; assay type: cell membranes
[16] = test system: Escherichia coli; experiment: Bactericidal activity against Escherichia coli ATCC 25922 assessed as bacterial reduction at 4 time of MIC concentration incubated for 2 hrs by time-kill assay; assay type: functional
[17] = test system: Escherichia coli; experiment: Bactericidal activity against Escherichia coli ATCC 25922 assessed as down regulation of benzoate degradation gene expression at 4 times of MIC concentration measured after 90 mins incubation by RNA sequencing (RNA-seq) study; assay type: functional, organism-based
[18] = test system: Escherichia coli; experiment: Bactericidal activity against Escherichia coli ATCC 25922 assessed as change in metabolic stress associated gene expression by measuring down-regulation of gale (DX983_RS06370) gene expression at 4 times of MIC concentration measured after 90 mins incubation by RNA sequencing (RNA-seq) study; assay type: functional, organism-based
[19] = test system: Staphylococcus aureus; experiment: Antibacterial activity against methicillin-resistant Staphylococcus aureus NCTC 10442 assessed as inhibition of bacterial growth incubated for 24 hrs by broth dilution method; assay type: functional
[20] = test system: Lipopolysaccharide (LPS); experiment: Displacement of BODIPY-TR-cadaverine from Escherichia coli lipopolysaccharide (LPS) assessed as increase in fluorescence intensity at 4 times MIC measured after 30 mins by fluorescence spectrophotometric analysis; assay type: subcellular
[21] = test system: Staphylococcus aureus; experiment: Antibacterial activity against Staphylococcus aureus ATCC 29213 assessed as inhibition of bacterial growth incubated for 24 hrs in presence of 4.5 mM K+ by broth dilution method; assay type: functional
[22] = test system: Escherichia coli; experiment: Antibacterial activity against Escherichia coli ATCC 25922 assessed as inhibition of bacterial growth incubated for 24 hrs in presence of 4.5 mM K+ by broth dilution method; assay type: functional
[23] = test system: Escherichia coli; experiment: Antibacterial activity against Escherichia coli ATCC 25922 assessed as inhibition of bacterial growth incubated for 24 hrs in presence of 1 mM Mg2+ by broth dilution method; assay type: functional
[24] = test system: Lipopolysaccharide (LPS); experiment: Displacement of BODIPY-TR-cadaverine from Escherichia coli lipopolysaccharide (LPS) assessed as increase in fluorescence intensity by fluorescence spectrophotometric analysis; assay type: subcellular
[25] = test system: Klebsiella pneumoniae; experiment: Antibacterial activity against Klebsiella pneumoniae ATCC 10031 assessed as inhibition of bacterial growth incubated for 24 hrs in presence of 1 mM Mg2+ by broth dilution method; assay type: functional
[26] = test system: Cell membrane; experiment: Induction of cytoplasmic membrane permeabilization in methicilin-resistant Staphylococcus aureus […] assessed as disruption of cell membrane integrity by measuring increase in fluorescence intensity at 1 to 8 times of MIC concentration measured upto 60 mins by SYTOX green dye based fluorescence analysis; assay type: cell membranes; settings: NCTC 10442
[27] = test system: Staphylococcus aureus; experiment: Bactericidal activity against methicillin-resistant Staphylococcus aureus NCTC 10442 assessed as change in cell death associated gene expression by measuring up-regulation of clfB, DX983_RS14825) and DX983_RS14235 gene expression at 4 times of MIC concentration measured after 90 mins incubation by RNA sequencing (RNA-seq) study; assay type: functional, organism-based
[28] = test system: Klebsiella pneumoniae; experiment: Antibacterial activity against Klebsiella pneumoniae ATCC 10031 assessed as inhibition of bacterial growth incubated for 24 hrs in presence of 20 uM Fe3+ by broth dilution method; assay type: functional
[29] = test system: Klebsiella pneumoniae; experiment: Antibacterial activity against Klebsiella pneumoniae ATCC 14581 assessed as inhibition of bacterial growth incubated for 24 hrs by broth dilution method; assay type: functional
[30] = test system: Klebsiella pneumoniae; experiment: Antibacterial activity against Klebsiella pneumoniae ATCC 10031 assessed as inhibition of bacterial growth incubated for 24 hrs in presence of 4.5 mM K+ by broth dilution method; assay type: functional
[31] = test system: Cell membrane; experiment: Induction of cytoplasmic membrane permeabilization in Pseudomonas aeruginosa ATCC 9027 assessed as disruption of cell membrane integrity measured upto 60 mins by measuring increase in fluorescence intensity at 1 to 8 times of MIC concentration by SYTOX green dye based fluorescence analysis; assay type: cell membranes
[32] = test system: Escherichia coli; experiment: as §1, with “outer membrane lipoprotein-coding gene (slp, D1792_ RS14130; porin, D1792_RS05555)” for “UDP-glucose 4-epimerase (galE, D1792_RS06370)”; assay type: functional, organism-based
[33] = test system: Escherichia coli; experiment: as §1, with “LPS export ABC transporter periplasmic-encoding gene (lptC, D1792_RS12575)” for “UDP-glucose 4-epimerase (galE, D1792_RS06370)”; assay type: functional, organism-based
[34] = test system: Escherichia coli; experiment: as §1, with “glycosyltransferase family 2 (D1792_RS06385)” for “UDP-glucose 4-epimerase (galE, D1792_RS06370)”; assay type: functional, organism-based

For `C=C(C)[C@@H]1CCC(C)=C[C@H]1c1c(OCCCNC(=N)N)cc(CCCCC)cc1OCCCNC(=N)N`, the Activity [1] was 3 log10FFU/ml, the MIC [2] was 0.39 µg/mL and the MIC [3] was 6.25 µg/mL (≈ 12.2 µM). For the same compound, the Activity [4] was 54%, the Activity [5] was “Active” and the MIC [6] was 0.39 µg/mL. It also gave an MIC [7] of 3.12 µg/mL, an MIC [8] of 0.78 µg/mL (≈ 1.52 µM) and a viability at 24 h, 1.56 microg/ml [9] of 113%. The viability at 24 h, 3.125 microg/ml [10] was 111%, the Activity [11] was “Active” and the MIC [12] was 0.39 µg/mL. For the same compound, the Activity [13] was “Active”, the Activity [14] was “Active” and the Activity [15] was “Active”. For the same compound, the Activity [16] was 5.52 log10FFU/ml, the Activity [17] was “Active” and the Activity [18] was “Active”. For the same compound, the MIC [19] was 0.78 µg/mL (≈ 1.52 µM), the Activity [20] was 76.5% and the MIC [21] was 0.78 µg/mL. For the same compound, the MIC [22] was 1.56 µg/mL, the MIC [23] was 1.56 µg/mL and the Activity [24] was “Dose-Dependent Effect”. For the same compound, the MIC [25] was 6.25 µg/mL, the Activity [26] was “Active” and the Activity [27] was “Active”. For the same compound, the MIC [28] was 3.12 µg/mL, the MIC [29] was 1.56 µg/mL (≈ 3.04 µM) and the MIC [30] was 6.25 µg/mL. The Activity [31] was “Active”, the Activity [32] was “Active” and the Activity [33] was “Active”. The Activity [34] was “Active”.

From ChEMBL document CHEMBL5543084, “Development of cannabidiol derivatives as potent broad-spectrum antibacterial agents with membrane-disruptive mechanism” (Eur J Med Chem, 2024)
